In patent US20230303572A1, “18-MC SALT FORMS” (Mind Medicine, Inc., priority 2022, published 2023):
Entries after “also recorded” stand apart in the source; their conditions may differ. Counter-ions that a name gives are not always drawn.

Columns and labels:
Format in all cases: physicochemical
[1] = Physical form stability on storage at RT, air drying or exposure to ambient conditions (XRPD); conditions: for Form after treatment: metastable forms; for form change after exposure to ambient conditions (XRPD): exposure to ambient conditions for ~30 min; for physical stability at ambient conditions: time not stated
Excerpt: (§1) For XRPD analysis, a PANalytical Empyrean and X′ Pert3 X-ray powder diffract meter was used.

[2] = Heating experiments and VT-XRPD (N2 drying, heating, cooling back): form change; conditions: for Form after heating: solid form by XRPD after heating, cells marked *, # have footnotes that are not shown; for form conversion, summary statement: after desolvation
Excerpt: as §1

[3] = Relative thermodynamic stability of HCl salt forms (desolvation and form conversion data); conditions: for Form after desolvation: solvates of HCl salt
Method: Starting from HCl salt materials with different forms, a total of 100 polymorph screening experiments was performed using different crystallization methods including salt formation by liquid vapor diffusion/slurry at elevated temperature, evaporation at RT/high temperatures, slurry and reverse anti-solvent addition at different temperatures, slow/crash cooling, polymer induced crystallization and grinding. All the resulting solids were isolated for XRPD test, and new forms were further characterized by TGA, DSC, ^1H NMR and HPLC/ IC.
An additional polymorph screening was performed for 18-MC HCl salt.

[4] = after storage or heating experiments
[5] = after air drying or RT storage, duration not stated
[6] = the solid turn to gel-like after air drying at RT in a few minutes

COCC[C@H]1CC2CN3CCc4c([nH]c5ccccc45)[C@](C(=O)OC)(C2)[C@H]13 [HBr salt Type C, 18-methoxycoronaridine]
form conversion, summary statement [1, 4]: could convert to HBr salt Type A | form change after heating (XRPD/VT-XRPD) ([2]; heating to 100° C.): peak of HBr salt Type A was observed | form change after heating (XRPD) ([2]; heating to 150° C.): most diffraction peaks were consistent with HBr salt Type A

COCC[C@H]1CC2CN3CCc4c([nH]c5ccccc45)[C@](C(=O)OC)(C2)[C@H]13 [HBr salt Type D, 18-methoxycoronaridine]
form conversion, summary statement [1, 4]: could convert to HBr salt Type A | form change after heating (XRPD/VT-XRPD) ([2]; heating to 100° C.): extra peak of HBr salt Type A was observed | form change after heating (XRPD) ([2]; heating to 150° C.): most diffraction peaks of the sample were consistent with HBr salt Type A

COCC[C@H]1CC2CN3CCc4c([nH]c5ccccc45)[C@](C(=O)OC)(C2)[C@H]13 [HCl salt Type A, 18-methoxycoronaridine]
thermodynamic stability among HCl salt forms ([3]; at RT): thermodynamically more stable than other anhydrates; also recorded: most thermodynamically stable form | thermodynamic stability among hydrochloride salt forms ([3]; temperature not stated): most thermodynamically stable form

COCC[C@H]1CC2CN3CCc4c([nH]c5ccccc45)[C@](C(=O)OC)(C2)[C@H]13 [HCl salt Type B, 18-methoxycoronaridine]
Form after desolvation [3]: HCl salt Type A | Form after heating [2]: HCl salt Type A

COCC[C@H]1CC2CN3CCc4c([nH]c5ccccc45)[C@](C(=O)OC)(C2)[C@H]13 [HCl salt Type C, 18-methoxycoronaridine]
Form after desolvation [3]: HCl salt Type A | Form after heating [2]: HCl salt Type A

COCC[C@H]1CC2CN3CCc4c([nH]c5ccccc45)[C@](C(=O)OC)(C2)[C@H]13 [HCl salt Type D, 18-methoxycoronaridine]
Form after treatment ([1]; Air drying): HCl salt Type A** | Form after heating [2]: HCl salt Type A*

COCC[C@H]1CC2CN3CCc4c([nH]c5ccccc45)[C@](C(=O)OC)(C2)[C@H]13 [HCl salt Type E, 18-methoxycoronaridine]
Form after treatment ([1]; Air drying): HCl salt Type A** | Form after heating [2]: HCl salt Type A**

COCC[C@H]1CC2CN3CCc4c([nH]c5ccccc45)[C@](C(=O)OC)(C2)[C@H]13 [HCl salt Type G, 18-methoxycoronaridine]
Form after treatment ([1]; RT storage): HCl salt Type A^# | Form after heating [2]: HCl salt Type A**

COCC[C@H]1CC2CN3CCc4c([nH]c5ccccc45)[C@](C(=O)OC)(C2)[C@H]13 [HCl salt Type I, 18-methoxycoronaridine]
Form after desolvation [3]: HCl salt Type A

COCC[C@H]1CC2CN3CCc4c([nH]c5ccccc45)[C@](C(=O)OC)(C2)[C@H]13 [HCl salt Type J, 18-methoxycoronaridine]
Form after treatment ([1]; RT storage): HCl salt Type F^# | Form after heating [2]: HCl salt Type F*

COCC[C@H]1CC2CN3CCc4c([nH]c5ccccc45)[C@](C(=O)OC)(C2)[C@H]13 [HCl salt Type L, 18-methoxycoronaridine]
Form after treatment ([1]; RT storage): HCl salt Type A^# | form conversion, summary statement [1, 5]: converted to HCl salt Type A | Form after heating [2]: HCl salt Type A

COCC[C@H]1CC2CN3CCc4c([nH]c5ccccc45)[C@](C(=O)OC)(C2)[C@H]13 [HCl salt Type O, 18-methoxycoronaridine]
Form after treatment ([1]; RT storage): HCl salt Type A^# | form conversion, summary statement [1, 5]: converted to HCl salt Type A

COCC[C@H]1CC2CN3CCc4c([nH]c5ccccc45)[C@](C(=O)OC)(C2)[C@H]13 [HCl salt Type P, 18-methoxycoronaridine]
Form after desolvation [3]: HCl salt Type A | form change after N2 drying (VT-XRPD) ([2]; N2-drying for 20 min at 30° C.): no form change | form conversion, summary statement [2]: converted to HCl salt Type A | form change after heating (XRPD) ([2]; heating to 80° C. and cooling back to RT): no obvious form change | form change after heating (XRPD/VT-XRPD) ([2]; heating to 100° C.): form change to HCl salt Type A | form change after heating (XRPD) ([2]; heating to 150° C.): converted to HCl salt Type A | form change after heating (VT-XRPD) ([2]; heating to 210° C. under N2 protection): amorphous sample was observed

COCC[C@H]1CC2CN3CCc4c([nH]c5ccccc45)[C@](C(=O)OC)(C2)[C@H]13 [HCl salt Type Q, 18-methoxycoronaridine]
Form after desolvation [3]: HCl salt Type A+freebase Type A | form change after N2 drying (VT-XRPD) ([2]; N2-drying for 20 min at 30° C.): no form change | form conversion, summary statement [2]: converted to HCl salt Type A | form change after heating (VT-XRPD) ([2]; heating to 100° C., 130° C., 160° C. and cooling back to 30° C. under N2 protection): form change to a mixture of HCl salt Type A and freebase Type A

COCC[C@H]1CC2CN3CCc4c([nH]c5ccccc45)[C@](C(=O)OC)(C2)[C@H]13 [HCl salt Type R, 18-methoxycoronaridine]
Form after desolvation [3]: HCl salt Type A | form conversion, summary statement [2]: converted to HCl salt Type A | form change after heating (XRPD) ([2]; heating to 170° C. and cooling back to ambient condition): converted to HCl salt Type A

COCC[C@H]1CC2CN3CCc4c([nH]c5ccccc45)[C@](C(=O)OC)(C2)[C@H]13 [HCl salt Type T, 18-methoxycoronaridine]
Form after desolvation [3]: HCl salt Type A | form conversion, summary statement [2]: converted to HCl salt Type A | form change after heating (XRPD) ([2]; heating to 150° C.): most diffraction peaks were consistent with HCl salt Type A

COCC[C@H]1CC2CN3CCc4c([nH]c5ccccc45)[C@](C(=O)OC)(C2)[C@H]13 [HCl salt Type U, 18-methoxycoronaridine]
Form after desolvation [3]: HCl salt Type A | form conversion, summary statement [2]: converted to HCl salt Type A | form change after heating (XRPD/VT-XRPD) ([2]; heating to 120° C.): an extra peak representative of HCl salt Type A was observed | form change after heating (XRPD) ([2]; heating to 150° C.): most diffraction peaks were consistent with HCl salt Type A

COCC[C@H]1CC2CN3CCc4c([nH]c5ccccc45)[C@](C(=O)OC)(C2)[C@H]13 [HCl salt Type V, 18-methoxycoronaridine]
Form after treatment ([1]; Air drying): HCl salt Type A** | form conversion, summary statement [1, 5]: converted to HCl salt Type A | form change after air drying (XRPD) ([1]; air drying for ~3 hours): converted to HCl salt Type A completely

COCC[C@H]1CC2CN3CCc4c([nH]c5ccccc45)[C@](C(=O)OC)(C2)[C@H]13 [besylate Type C, 18-methoxycoronaridine]
form change after exposure to ambient conditions (XRPD) [1]: converted back to besylate Type A

COCC[C@H]1CC2CN3CCc4c([nH]c5ccccc45)[C@](C(=O)OC)(C2)[C@H]13 [mesylate Type B, 18-methoxycoronaridine]
physical stability at ambient conditions [1]: not found to be physically stable at ambient conditions and easily converted to gels/oils | Speculated form (physical stability) [1, 6]: Metastable*

COCC[C@H]1CC2CN3CCc4c([nH]c5ccccc45)[C@](C(=O)OC)(C2)[C@H]13 [mesylate Type C, 18-methoxycoronaridine]
physical stability at ambient conditions [1]: not found to be physically stable at ambient conditions and easily converted to gels/oils | Speculated form (physical stability) [1, 6]: Metastable*

COCC[C@H]1CC2CN3CCc4c([nH]c5ccccc45)[C@](C(=O)OC)(C2)[C@H]13 [sulfate Type B, 18-methoxycoronaridine]
form conversion, summary statement [1, 5]: converted to sulfate Type E | form change after storage (XRPD) ([1]; storage at RT in a sealed vial for ~12 days): form change to sulfate Type E

COCC[C@H]1CC2CN3CCc4c([nH]c5ccccc45)[C@](C(=O)OC)(C2)[C@H]13 [sulfate Type C, 18-methoxycoronaridine]
form conversion, summary statement [1, 5]: converted to sulfate Type A | form change after air drying (XRPD) ([1]; air drying at RT for ~30 min): converted to sulfate Type A

COCC[C@H]1CC2CN3CCc4c([nH]c5ccccc45)[C@](C(=O)OC)(C2)[C@H]13 [sulfate Type F, 18-methoxycoronaridine]
physical stability at ambient conditions [1]: not physically stable | form change after exposure to ambient conditions (XRPD) [1]: converted back to sulfate Type D | form change after heating (XRPD/VT-XRPD) ([2]; heating to 100° C.): remained sulfate Type F

COCC[C@H]1CC2CN3CCc4c([nH]c5ccccc45)[C@](C(=O)OC)(C2)[C@H]13 [tosylate Type A, 18-methoxycoronaridine]
form change after storage (XRPD) ([1]; storage at RT for ~7 days): peak of tosylate Type B was observed | form change after storage (XRPD) ([1]; storage for 3 weeks): totally converted to tosylate Type B | form change after N2 drying (VT-XRPD) ([2]; N2-drying for 30 min at 30° C.): no form change | form change after heating (XRPD/VT-XRPD) ([2]; heating to 100° C.): a form change was observed, which was assigned as tosylate Type I

COCC[C@H]1CC2CN3CCc4c([nH]c5ccccc45)[C@](C(=O)OC)(C2)[C@H]13 [tosylate Type C, 18-methoxycoronaridine]
form change after storage (XRPD) ([1]; storage at RT for about 2.5 month): form change to tosylate Type B | form change after N2 drying (VT-XRPD) ([2]; N2-drying for 30 min at 30° C.): form change was observed for tosylate Type C. The new form was assigned as tosylate Type D

COCC[C@H]1CC2CN3CCc4c([nH]c5ccccc45)[C@](C(=O)OC)(C2)[C@H]13 [tosylate Type D, 18-methoxycoronaridine]
form change after exposure to ambient conditions (XRPD) [1]: converted to tosylate Type B | form change after heating (XRPD/VT-XRPD) ([2]; heating to 100° C.): no form change | form change after heating (VT-XRPD) ([2]; heating to 140° C. under N2 protection): an amorphous pattern was observed

COCC[C@H]1CC2CN3CCc4c([nH]c5ccccc45)[C@](C(=O)OC)(C2)[C@H]13 [tosylate Type H, 18-methoxycoronaridine]
form change after air drying (XRPD) ([1]; air drying for ~3 hours): form change to tosylate Type A | Speculated form (physical stability) ([1]; form characterization summary of tosylate): Metastable

COCC[C@H]1CC2CN3CCc4c([nH]c5ccccc45)[C@](C(=O)OC)(C2)[C@H]13 [tosylate Type I, 18-methoxycoronaridine]
form change after open dish (XRPD) ([1]; open dish for ~3 hrs): converted back to tosylate Type A with an extra peak of tosylate Type B
